Assay results from patent publication US20260226048A1, “MULTI-CYCLIC IRAK AND FLT3 INHIBITING COMPOUNDS AND USES THEREOF” (CHILDREN'S HOSPITAL MEDICAL CENTER, priority 2023, published 2026).
Positions count from the first letter of the chain named.

Columns and labels:
FLT3 D835H = molecular target: T1, FLT3 D835H (Homo sapiens, UniProt P36888, D835H); experiment: DiscoverX KINOMEscan competition binding assay, FLT3 D835H; details: 11-point 3-fold dilution
T1 construct: purchased DiscoverX (KINOMEscan); host or cells: E. coli BL21-derived host (T7 phage) or HEK-293
T1 sequence (P36888 27-993 D835H): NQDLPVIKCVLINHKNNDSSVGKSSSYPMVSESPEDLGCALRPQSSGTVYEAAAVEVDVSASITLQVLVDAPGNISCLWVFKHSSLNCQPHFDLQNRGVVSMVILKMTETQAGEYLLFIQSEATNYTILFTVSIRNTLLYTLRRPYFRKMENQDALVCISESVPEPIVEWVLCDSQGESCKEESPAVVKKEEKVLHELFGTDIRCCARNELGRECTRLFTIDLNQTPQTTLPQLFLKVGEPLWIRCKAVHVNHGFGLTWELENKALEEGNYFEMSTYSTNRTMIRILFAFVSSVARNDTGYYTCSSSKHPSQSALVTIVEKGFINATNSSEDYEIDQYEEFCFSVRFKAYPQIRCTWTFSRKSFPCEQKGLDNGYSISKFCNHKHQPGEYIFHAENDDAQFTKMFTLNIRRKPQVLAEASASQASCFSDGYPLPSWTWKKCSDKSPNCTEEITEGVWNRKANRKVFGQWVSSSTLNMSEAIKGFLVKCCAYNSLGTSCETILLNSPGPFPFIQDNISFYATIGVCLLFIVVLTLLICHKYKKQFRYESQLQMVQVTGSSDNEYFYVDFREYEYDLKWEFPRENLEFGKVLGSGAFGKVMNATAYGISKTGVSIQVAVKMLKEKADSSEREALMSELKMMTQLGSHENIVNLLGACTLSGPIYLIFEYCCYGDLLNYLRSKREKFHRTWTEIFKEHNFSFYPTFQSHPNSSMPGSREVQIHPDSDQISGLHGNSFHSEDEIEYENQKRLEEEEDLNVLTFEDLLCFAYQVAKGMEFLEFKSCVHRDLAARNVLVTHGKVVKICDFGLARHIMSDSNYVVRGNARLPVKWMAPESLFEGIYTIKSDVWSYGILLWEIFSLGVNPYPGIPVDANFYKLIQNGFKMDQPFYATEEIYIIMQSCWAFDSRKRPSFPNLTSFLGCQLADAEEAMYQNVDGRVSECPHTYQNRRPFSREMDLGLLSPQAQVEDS
Text: (§1) […]. […] As a result, the data report thermodynamic interaction affinities (Kd values), rather than IC50 values that are dependent on ATP concentrations. The assay uses a DNA-tagged version of the protein kinase, and an immobilized ligand bound to a solid support. Compounds that directly or indirectly prevent kinase binding to the immobilized ligand reduce the amount of kinase captured on the solid support, which is detected using an ultra-sensitive qPCR method. Affinity constants reported from the assay have been reported to be independent of the immobilized ligand used that is coupled to the solid support (See supplemental information in Fabian, M. A. et. al., (2005) Nat. Biotechnol. 23, 329-336; Wodicka, L. M. et. al., (2010) Chem. Biol. 17, 1241-1249.)
(§2) Kinase-tagged T7 phage strains were prepared in an E. coli host derived from the BL21 strain. E. coli were grown to log-phase and infected with T7 phage and incubated with shaking at 32° C. until lysis. The lysates were centrifuged and filtered to remove cell debris. The remaining kinases were produced in HEK-293 cells and subsequently tagged with DNA for qPCR detection. Streptavidin-coated magnetic beads were treated with biotinylated small molecule ligands for 30 minutes at room temperature to generate affinity resins for kinase assays. The liganded beads were blocked with excess biotin and washed with blocking buffer (SeaBlock (Pierce), 1% BSA, 0.05% Tween 20, 1 mM DTT) to remove unbound ligand and to reduce non-specific binding. […] Test compounds were prepared as 111× stocks in 100% DMSO. Kds were determined using an 11-point 3-fold compound dilution series with three DMSO control points. All compounds for Kd measurements are distributed by acoustic transfer (non-contact dispensing) in 100% DMSO. The compounds were then diluted directly into the assays such that the final concentration of DMSO was 0.9%. All reactions were performed in polypropylene 384-well plates. Each was a final volume of 0.02 mL. […] The kinase concentration in the eluates was measured by qPCR.
(§3) Binding constants (Kds) were calculated with a standard dose-response curve using the Hill equation. The Hill Slope was set to −1. Curves were fitted using a non-linear least square fit with the Levenberg-Marquardt algorithm.

FLT3 R834Q = molecular target: T2, FLT3 R834Q (Homo sapiens, UniProt P36888, R834Q); experiment: DiscoverX KINOMEscan competition binding assay, FLT3 R834Q; details: 11-point 3-fold dilution
T2 construct: purchased DiscoverX (KINOMEscan); host or cells: E. coli BL21-derived host (T7 phage) or HEK-293
T2 sequence (P36888 27-993 R834Q): T1 sequence (P36888 27-993 D835H) with R808Q, H809D
Text: as §1, §2, §3

Row | SMILES | Kd (FLT3 D835H) [nM] | Kd (FLT3 R834Q) [nM]
1 | COc1cc2ncc(-c3nc(N[C@H]4CNCC[C@@H]4F)ncc3F)n2nc1C1CC1 [Compound 1a, 4-(6-cyclopropyl-7-methoxyimidazo[1,2-b]pyridazin-3-yl)-5-fluoro-N-((3S,4S)-4-fluoropiperidin-3-yl)pyrimidin-2-amine] | 0.22 | < 0.17
2 | FC(F)COc1cc2ncc(-c3ccnc(N[C@H]4CNCC[C@@H]4F)n3)n2nc1C1CC1 [Compound 4a, 4-(6-cyclopropyl-7-(2,2-difluoroethoxy)imidazo[1,2-b]pyridazin-3-yl)-N-((3 S,4S)-4-fluoropiperidin-3-yl)pyrimidin-2-amine] | 0.7 | 0.69
3 | COc1cc2ncc(-c3nc(N[C@H]4CNCC[C@@H]4F)ncc3F)n2nc1C(C)(C)O [Compound 45a, 2-(3-(5-fluoro-2-(((3S,4S)-4-fluoropiperidin-3-yl)amino)pyrimidin-4-yl)-7-methoxyimidazo[1,2-b]pyridazin-6-yl)propan-2-ol] | 0.42 | 5.9
4 | CC(C)(O)c1ccc2ncc(-c3nc(N[C@H]4CNCC[C@@H]4F)ncc3F)n2c1 [Compound 46a, 2-(3-(5-fluoro-2-(((3S,4S)-4-fluoropiperidin-3-yl)amino)pyrimidin-4-yl)imidazo[1,2-a]pyridin-6-yl)propan-2-ol] | 0.67 | 4.4
5 | COc1cc2ncc(-c3nc(N[C@H]4CNCC[C@@H]4F)ncc3F)n2nc1C1COC1 [Compound 92a, 5-fluoro-N-((3S,4S)-4-fluoropiperidin-3-yl)-4-(7-methoxy-6-(oxetan-3-yl)imidazo[1,2-b]pyridazin-3-yl)pyrimidin-2-amine] | < 0.17 | 0.77
6 | CC(C)(O)c1cn2c(-c3nc(N[C@H]4CNCC[C@@H]4F)ncc3F)cnc2cn1 [Compound 100a, 2-(3-(5-fluoro-2-(((3S,4S)-4-fluoropiperidin-3-yl)amino)pyrimidin-4-yl)imidazo[1,2-a]pyrazin-6-yl)propan-2-ol] | 6.3 | 40
7 | COc1cc2ncc(-c3nc(N[C@H]4CNCC[C@@H]4F)ncc3F)n2nc1N1CCCS1(=O)=O [Compound 112a, 2-(3-(5-fluoro-2-(((3S,4S)-4-fluoropiperidin-3-yl)amino)pyrimidin-4-yl)-7-methoxyimidazo[1,2-b]pyridazin-6-yl)isothiazolidine 1,1-dioxide] | < 0.17 | 0.28
